Measurements: ChEMBL document CHEMBL5518227, “Discovery of JNJ-1802, a First-in-Class Pan-Serotype Dengue Virus NS4B Inhibitor” (J Med Chem, 2024)
Converted amounts (≈) assume the structure as drawn. “And” between values parts separate entries of the source, which are not always exact repeats. Equal entries are not always repeated.

Columns and labels:
[1] = test system: dengue virus type 1; assay: Antiviral activity against DENV-1 TC974#666 infected in african green monkey Vero cells incubated for 24 hrs measured after 3 days post infection by RT-PCR analysis; type: functional, organism-based
[2] = test system: dengue virus type 2; assay: Antiviral activity against DENV-2 16681 expressing eGFP infected in african green monkey Vero cells incubated with cells for 24 hrs followed by viral infection measured after 3 days by laser microscopic analysis; type: functional, organism-based; settings: Dengue virus, 16681, Vero
[3] = test system: dengue virus type 3; assay: Antiviral activity against DENV-3 H87 infected in african green monkey Vero cells incubated for 24 hrs measured after 3 days post infection by RT-PCR analysis; type: functional, organism-based
[4] = test system: dengue virus type 4; assay: Antiviral activity against DENV-4 H241 infected in african green monkey Vero cells incubated for 24 hrs measured after 3 days post infection by RT-PCR analysis; type: functional, organism-based
[5] = Metabolic stability in human liver microsomes assessed as intrinsic clearance preincubated for 5 mins followed by NADPH addition measured upto 60 mins by LC-MS/MS analysis; type: ADME, Microsome; settings: time < 65 min, read-out: CLH
[6] = Metabolic stability in human hepatocytes assessed as intrinsic clearance measured per million cells incubated upto 120 mins by LC-MS/MS analysis; type: ADME, cell-based, Hepatocyte; settings: read-out: CLH
[7] = Chromatographic hydrophobicity index, log D of the compound at pH 7.4 by LC/MS analysis; type: physicochemical; settings: buffer
[8] = Metabolic stability in rat hepatocytes assessed as intrinsic clearance measured per million cells incubated upto 120 mins by LC-MS/MS analysis; type: ADME, cell-based, Hepatocyte; settings: read-out: CLH
[9] = Clearance in Sprague-Dawley rat at 2.5 mg/kg, iv measured after 24 hrs by LC-MS/MS analysis; type: ADME, organism-based; settings: in vivo
[10] = Clearance in Sprague-Dawley rat assessed as liver blood flow at 2.5 mg/kg, iv measured after 24 hrs by LC-MS/MS analysis; type: ADME, organism-based; settings: in vivo
[11] = Volume of distribution at steady state in Sprague-Dawley rat at 2.5 mg/kg, iv measured after 24 hrs by LC-MS/MS analysis; type: ADME, organism-based; settings: in vivo, read-out: Vdss
[12] = Elimination half life in Sprague-Dawley rat at 2.5 mg/kg, iv measured after 24 hrs by LC-MS/MS analysis; type: ADME, organism-based; settings: in vivo, read-out: beta t1/2 (converted)
[13] = Cmax in Sprague-Dawley rat at 10 mg/kg, po measured after 24 to 48 hrs by LC-MS/MS analysis; type: ADME, organism-based; settings: in vivo, time 24-48 hrs
[14] = AUC in Sprague-Dawley rat at 10 mg/kg, po measured after 24 to 48 hrs by LC-MS/MS analysis; type: ADME, organism-based; settings: in vivo, time 24-48 hrs
[15] = Oral bioavailability in Sprague-Dawley rat at 10 mg/kg measured after 24 to 48 hrs by LC-MS/MS analysis; type: ADME, organism-based; settings: in vivo, time 24-48 hrs
[16] = Thermodynamic solubility of the compound in aqueous buffer at pH 7.4 measured after 24 hrs by UPLC analysis; type: physicochemical; settings: read-out: Therm_solubility
[17] = Thermodynamic solubility of the compound in PEG400 measured after 24 hrs by UPLC analysis; type: physicochemical
[18] = Metabolic stability in rat liver microsomes assessed as intrinsic clearance preincubated for 5 mins followed by NADPH addition measured upto 60 mins by LC-MS/MS analysis; type: ADME, Microsome; settings: time < 65 min, read-out: CLH
[19] = Metabolic stability in mouse liver microsomes assessed as intrinsic clearance preincubated for 5 mins followed by NADPH addition measured upto 60 mins by LC-MS/MS analysis; type: ADME, Microsome; settings: time < 65 min, read-out: CLH
[20] = Dengue virus, TC974#666, Vero, read-out: EC50
[21] = Dengue virus, H87, Vero, read-out: EC50

Row | SMILES | EC50 [1, 20] | EC50 [2] | EC50 [3, 21] | EC50 [4] | microsomal CLint [5] | hepatocyte CLint [6] | Chromatographic log D at pH 7.4 [7] | also measured
1 | COc1cc(NC(C(=O)c2c[nH]c3cc(OC)ccc23)c2ccc(Cl)cc2OC)cc(S(C)(=O)=O)c1 (single isomer, unassigned; (+)) | 4 nM | 0.3 nM | 48 nM | 110 nM | < 8 µL/min/mg | 10 µL/min/1e6 cells | 3.23 | –
2 | COc1cc(NC(C(=O)c2c[nH]c3cc(F)ccc23)c2ccc(Cl)cc2OC)cc(S(C)(=O)=O)c1 (single isomer, unassigned; (+)) | – | – | – | – | < 8 µL/min/mg | – | 3.46 | EC50 ([1]; vero, read-out: EC50): 20 nM and 2 nM
3 | COc1cc(NC(C(=O)c2c[nH]c3cc(F)c(C)cc23)c2ccc(Cl)cc2OC)cc(S(C)(=O)=O)c1 (single isomer, unassigned; (+)) | 0.4 nM | 0.17 nM | 8 nM | 44 nM | < 8 µL/min/mg | 2.4 µL/min/1e6 cells | 3.68 | –
4 | COc1cc(NC(C(=O)c2c[nH]c3c(C)c(F)ccc23)c2ccc(Cl)cc2OC)cc(S(C)(=O)=O)c1 (single isomer, unassigned; (+)) | 2 nM | 0.24 nM | 19 nM | 83 nM | < 8 µL/min/mg | – | 3.73 | –
5 | COc1cc(NC(C(=O)c2c[nH]c3cc(OC)c(C)cc23)c2ccc(F)cc2OC)cc(S(C)(=O)=O)c1 (single isomer, unassigned; (+)) | 40 nM | 0.61 nM | 55 nM | 110 nM | – | 7.6 µL/min/1e6 cells | 3.36 | hepatocyte CLint [8]: 17 µL/min/1e6 cells; clearance [9]: 14 mL/min/kg; LBF [10]: 20%; Vd [11]: 5.5 L/kg; half-life [12]: 5.1 h; Cmax [13]: 263 ng/mL; AUC [14]: 3700 ng·h/mL; bioavailability [15]: 31%; solubility thermodynamic at 24 h [16]: 1 µg/mL (≈ 1.9 µM); Therm_solubility [17]: 93000 µg/mL
6 | COc1cc(NC(C(=O)c2c[nH]c3ccccc23)c2ccc(F)cc2)cc(S(=O)(=O)CCCO)c1 (configuration not stated) | – | 230 nM | – | 14000 nM | 35 µL/min/mg | – | – | EC50 ([1]; vero): Not Active; EC50 ([3]; vero): Not Active; microsomal CLint [18]: 66 µL/min/mg
7 | COc1cc(NC(C(=O)c2c[nH]c3c(C)cc(OC(F)(F)F)cc23)c2ccc(Cl)cc2OC)cc(S(C)(=O)=O)c1 (configuration not stated) | 0.1 nM | 0.051 nM | 1 nM | 11 nM | < 8 µL/min/mg | < 1.2 µL/min/1e6 cells | 4.16 | –
8 | COc1cc(NC(C(=O)c2c[nH]c3ccccc23)c2ccc(F)cc2)cc(OCCO)c1 (configuration not stated) | 86 nM | 14 nM | 950 nM | 2600 nM | < 8 µL/min/mg | – | – | microsomal CLint [18]: 24 µL/min/mg; microsomal CLint [19]: 94 µL/min/mg
9 | COc1cc(NC(C(=O)c2c[nH]c3cc(OC)c(C)cc23)c2ccc(Cl)cc2OCCO)cc(S(C)(=O)=O)c1 (single isomer, unassigned; (+)) | 2 nM | 0.37 nM | 17 nM | 53 nM | – | < 1.9 µL/min/1e6 cells | 3.24 | hepatocyte CLint [8]: 3.7 µL/min/1e6 cells; clearance [9]: 21 mL/min/kg; LBF [10]: 31%; Vd [11]: 7.1 L/kg; half-life [12]: 4.7 h; Cmax [13]: 103 ng/mL; AUC [14]: 1200 ng·h/mL; bioavailability [15]: 16%; solubility thermodynamic at 24 h [16]: < 1 µg/mL
10 | COc1cc(NC(C(=O)c2c[nH]c3c(C)c(OC)ccc23)c2ccc(Cl)cc2OC)cc(S(C)(=O)=O)c1 (single isomer, unassigned; (+)) | 2 nM | 0.11 nM | 19 nM | 95 nM | < 8 µL/min/mg | 14 µL/min/1e6 cells | 3.59 | –
11 | COc1cc(NC(C(=O)c2c[nH]c3cc(OC)c(C)cc23)c2ccc(F)cc2OCCO)cc(S(C)(=O)=O)c1 (single isomer, unassigned; (+)) | 3 nM | 0.84 nM | 43 nM | 110 nM | – | < 1.9 µL/min/1e6 cells | 2.98 | hepatocyte CLint [8]: 11 µL/min/1e6 cells; clearance [9]: 30 mL/min/kg; LBF [10]: 42%; Vd [11]: 9.6 L/kg; half-life [12]: 4.2 h; Cmax [13]: 94 ng/mL; AUC [14]: 1010 ng·h/mL; bioavailability [15]: 18%; solubility thermodynamic at 24 h [16]: < 1 µg/mL
12 | COc1cc(NC(C(=O)c2c[nH]c3cc(OC)c(OC(F)(F)F)cc23)c2ccc(Cl)cc2OC)cc(S(C)(=O)=O)c1 (single isomer, unassigned; (+)) | 0.3 nM | 0.057 nM | 4 nM | 11 nM | < 8 µL/min/mg | < 1.2 µL/min/1e6 cells | 3.82 | –
13 | COc1cc(NC(C(=O)c2c[nH]c3ccc(C(F)(F)F)cc23)c2ccc(Cl)cc2OC)cc(S(C)(=O)=O)c1 (single isomer, unassigned; (+)) | 0.4 nM | 0.31 nM | 6 nM | 15 nM | < 8 µL/min/mg | < 1.2 µL/min/1e6 cells | 3.87 | –
14 | COc1cc(NC(C(=O)c2c[nH]c3cc(OC)c(C)cc23)c2ccc(Cl)cc2OC)cc(S(C)(=O)=O)c1 (configuration not stated) | 0.97 nM | – | – | – | < 8 µL/min/mg | – | – | EC50 ([1]; vero, read-out: EC50): 0.9 nM; hepatocyte CLint [8]: 7.2 µL/min/1e6 cells; clearance [9]: 23 mL/min/kg; LBF [10]: 33%; Vd [11]: 8.8 L/kg; half-life [12]: 4.4 h; Cmax [13]: 371 ng/mL; AUC [14]: 5140 ng·h/mL; bioavailability [15]: 74%; solubility thermodynamic at 24 h [16]: 1 µg/mL (≈ 1.84 µM); Therm_solubility [17]: > 169000 µg/mL
15 | COc1cc(NC(C(=O)c2c[nH]c3cc(OC)c(F)cc23)c2ccc(Cl)cc2OC)cc(S(C)(=O)=O)c1 (single isomer, unassigned; (+)) | 4 nM | 0.34 nM | 53 nM | 100 nM | < 8 µL/min/mg | 10 µL/min/1e6 cells | 3.22 | –
16 | COc1cc(NC(C(=O)c2c[nH]c3cc(F)ccc23)c2ccc(F)cc2OCCO)cc(S(C)(=O)=O)c1 (single isomer, unassigned; (+)) | 8 nM | 1 nM | 68 nM | 290 nM | – | 27 µL/min/1e6 cells | Not Active | hepatocyte CLint [8]: 8.8 µL/min/1e6 cells; clearance [9]: 35 mL/min/kg; LBF [10]: 40%; Vd [11]: 10 L/kg; half-life [12]: 3.9 h; Cmax [13]: 104 ng/mL; AUC [14]: 1250 ng·h/mL; bioavailability [15]: 27%; solubility thermodynamic at 24 h [16]: 1 µg/mL (≈ 1.88 µM)
17 | COc1cc(NC(C(=O)c2c[nH]c3ccccc23)c2ccc(F)cc2OC)cc(OCCO)c1 (single isomer, unassigned; (+)) | 40 nM | 9 nM | 210 nM | 760 nM | 8 µL/min/mg | – | – | microsomal CLint [18]: 24 µL/min/mg; microsomal CLint [19]: 190 µL/min/mg
18 | COc1cc(NC(C(=O)c2c[nH]c3ccccc23)c2ccc(F)cc2)cc(S(C)(=O)=O)c1 (configuration not stated) | 88 nM | 9 nM | 680 nM | 1800 nM | 12 µL/min/mg | – | – | microsomal CLint [18]: 16 µL/min/mg; microsomal CLint [19]: 48 µL/min/mg
19 | COc1cc(NC(C(=O)c2c[nH]c3cc(F)ccc23)c2ccc(F)cc2OC)cc(S(C)(=O)=O)c1 (configuration not stated) | 8 nM | – | 50 nM | 170 nM | – | < 1.9 µL/min/1e6 cells | 3.23 | hepatocyte CLint [8]: 8.5 µL/min/1e6 cells; clearance [9]: 16 mL/min/kg; LBF [10]: 23%; Vd [11]: 7.2 L/kg; half-life [12]: 5.3 h; Cmax [13]: 418 ng/mL; AUC [14]: 5210 ng·h/mL; bioavailability [15]: 49%; solubility thermodynamic at 24 h [16]: 2 µg/mL (≈ 4 µM); Therm_solubility [17]: 41000 µg/mL
20 | COc1cc(NC(C(=O)c2c[nH]c3cc(F)ccc23)c2ccc(Cl)cc2OCCO)cc(S(C)(=O)=O)c1 (single isomer, unassigned; (+)) | 1 nM | 0.46 nM | 9 nM | 71 nM | – | 29 µL/min/1e6 cells | – | –
21 | COc1cc(NC(C(=O)c2c[nH]c3ccccc23)c2ccc(F)cc2OC)cc(S(C)(=O)=O)c1 (single isomer, unassigned; (+)) | 12 nM | 2 nM | 120 nM | 230 nM | 9 µL/min/mg | 7 µL/min/1e6 cells | – | microsomal CLint [18]: 15 µL/min/mg; microsomal CLint [19]: 27 µL/min/mg
